Laboratory results: ChEMBL document CHEMBL2113921, “Open Source Malaria Deposition 1. http://malaria.ourexperiment.org” (2013)
In brackets after ≈: the same amount, converted by molar mass.

Assays:
[1] = test system: Plasmodium falciparum; experiment: OSM: Inhibition of Plasmodium falciparum 3D7 growth. IC50 values determined from 21 point dose response curves. Avery Group Griffith.; type: functional, organism-based
[2] = test system: Plasmodium falciparum; experiment: OSM: Late stage gametocytes. IC50 values determined from 21 point dose response curves. Avery Group Griffith.; type: functional, organism-based; conditions: Pfs16-GFP transgenic NF54
[3] = test system: Plasmodium falciparum K1; experiment: OSM: Percent inhibition of Plasmodium falciparum K1 growth at 120 uM. Avery Group Griffith.; type: functional
[4] = test system: Plasmodium falciparum; experiment: OSM: Inhibition of Plasmodium falciparum 3D7 growth using a SYBR green I fluorescence based assay. GSK Tres Cantos.; type: functional, organism-based
[5] = OSM: HEK293 cytotoxicity assay. Duplicate point single experiment at 120 uM. Avery Group, Griffith.; type: toxicity, cell-based; conditions: human, HEK293 cells; read-out: Inhibition
[6] = test system: Plasmodium falciparum; experiment: OSM: Percent inhibition of Plasmodium falciparum 3D7 growth at 120 uM. Avery Group Griffith.; type: functional
[7] = OSM: Microsomal stability: 0.5 uM substrate, 0.4 mg/mL protein, NADPH cofactor. Analysed by LC/MS. Degradation half life (min).; type: ADME, Microsome; conditions: human, microsomes
[8] = OSM: Microsomal stability: 0.5 uM substrate, 0.4 mg/mL protein, NADPH cofactor). Analysed by LC/MS. In vitro CLint (uL/min/mg protein).; type: ADME, Microsome; conditions: human, microsomes
[9] = test system: Plasmodium falciparum; experiment: OSM: Inhibition of Plasmodium falciparum 3D7 growth using a SYBR green I fluorescence based assay. Dose response curves were generated comprising of 8 points using a 2-fold serial dilution for the maximum final concentration of 1000 nM. Ralph Group, Bio21.; type: functional, organism-based
[10] = OSM: Microsomal stability: 0.5 uM substrate, 0.4 mg/mL protein, NADPH cofactor. Analysed by LC/MS. Degradation rate classification.; type: ADME, Microsome; conditions: human, microsomes
[11] = OSM: Kinetic solubility pH 6.5 isotonic phosphate buffer.; type: ADME
[12] = test system: Plasmodium falciparum K1; experiment: OSM: Inhibition of Plasmodium falciparum K1 growth. IC50 values determined from 21 point dose response curves. Avery Group Griffith.; type: functional, organism-based

For `Cc1c(-c2nc(C(N)=O)co2)cnn1-c1ccc(F)cc1`, the IC50 [1] was greater than 40 µM.
In the case of `O=S(=O)(Nc1ncnc2sc(-c3ccccc3)cc12)c1ccccc1`, the IC50 [1] is reported as greater than 40 µM.
In the case of `COc1cc(C)c2c(Oc3cccc(C(F)(F)F)c3)c(OC)cc(NC(C)CCCN)c2n1` (centres undefined) [TAFENOQUINE], the IC50 [2] is reported as 2800 nM.
For `Cc1cc(C(=O)OC(C)(C)C(N)=O)c(C)n1-c1ccc(F)cc1`, the IC50 [1] was greater than 40 µM.
In the case of `COC(=O)[C@H](CO)NC(=O)c1cc(C)n(-c2ccc(F)cc2)c1C`, the IC50 [1] is reported as greater than 40 µM.
`CCOC(=O)C(C)OC(=O)c1cc(C)n(-c2ccc(F)cc2)c1C` (centres undefined) showed an IC50 [1] greater than 40 µM.
Compound `Cc1cc(C(=O)O)c(C)n1-c1ccc(F)cc1` has an inhibition at 120 µM [3] of 50%, an IC50 [4] greater than 5000 nM and a cytotoxicity at 120 µM [5] of 20%. The inhibition at 120 µM [6] was 75%.
`c1ccc(CSc2nc[nH]n2)cc1` gave an IC50 [1] greater than 40 µM.
Work on `CCc1ccc(-n2c(C)cc(CN3CCC(C(=O)O)CC3)c2C)cc1` yielded an IC50 [1] greater than 40 µM.
With `O=C1C(O)=C([C@H]2CC[C@H](c3ccc(Cl)cc3)CC2)C(=O)c2ccccc21` [ATOVAQUONE] the IC50 [4] was 1 nM.
With `Cc1c(-c2nc(C(=O)O)co2)cnn1-c1ccc(F)cc1` the IC50 [1] was greater than 40 µM.
For `CNC(=O)COC(=O)c1cc(C)n(-c2ccc(F)cc2)c1C`, the IC50 [1] was 9.4 µM.
`COC(=O)c1coc(-c2cc(C)n(-c3ccc(F)cc3)c2C)n1` gave an IC50 [1] greater than 40 µM.
In the case of `Cc1ccc(Nc2ncnc3ccsc23)cc1S(=O)(=O)N(C)C`, the IC50 [1] is reported as greater than 40 µM.
`Cc1cc(/C=C2\S/C(=N\c3ccccc3)NC2=O)c(C)n1-c1cc(C(F)(F)F)cc(C(F)(F)F)c1` gave a half-life at 0.5 µM [7] greater than 250 min, a microsomal CLint at 0.5 µM [8] of less than 7 µL/min/mg and an IC50 [9] of 5 nM. The IC50 [4] was 7 nM, the IC50 [2] was 3 nM and the Relative metabolic rate [10] was “Low”. For the same compound, the solubility kinetic [11] was 4 µg/mL (≈ 7.85 µM) and the IC50 [1] was 0.001 µM.
Work on `Cc1cc(/C=C2\S/C(=N\c3ccccc3)NC2=O)c(C)n1-c1ccccn1` yielded an IC50 [9] of 442 nM, an IC50 [4] of 309 nM and an IC50 [1] of 0.307 µM.
In the case of `C[C@@H]1CC[C@H]2[C@@H](C)C(=O)O[C@@H]3O[C@@]4(C)CC[C@@H]1[C@]32OO4` [ARTEMISININ], the IC50 [12] is reported as 1 nM, the cytotoxicity at 120 µM [5] is reported as 25% and the IC50 [1] is reported as 41.1 µM.
`NS(=O)(=O)c1cccc(CNc2ncnc3ccsc23)c1` gave an IC50 [1] greater than 40 µM.
In the case of `CC(=O)N(C1=NC(=O)/C(=C/c2cc(C)n(-c3ccc(C(F)(F)F)cc3)c2C)S1)c1ccccc1`, the IC50 [9] is reported as 8 nM, the IC50 [4] is reported as 26 nM and the IC50 [1] is reported as 0.012 µM.
With `Cc1ccc(-n2c(C)cc(/C=C3\S/C(=N\c4ccccc4)NC3=O)c2C)cc1` the half-life at 0.5 µM [7] was greater than 245 min, the microsomal CLint at 0.5 µM [8] was less than 7 µL/min/mg and the IC50 [9] was 9 nM. For the same compound, the IC50 [4] was 28 nM, the Relative metabolic rate [10] was “Low” and the solubility kinetic [11] was 2 µg/mL (≈ 5.16 µM). It also gave an IC50 [1] of 0.015 µM.
`Cc1cc(C(=O)OCC(=O)N(C)C)c(C)n1-c1ccc(F)cc1` gave an IC50 [1] of 11.3 µM.
`CC(=O)N(C1=NC(=O)/C(=C/c2cc(C)n(-c3ccc(F)cc3)c2C)S1)c1ccccc1` showed an IC50 [12] of 66 nM, an IC50 [4] of 47 nM and an IC50 [2] of 28 nM. For the same compound, the Relative metabolic rate [10] was “Rapid non-NADPH acetamide hydrolysis to OSM-S-10”, the cytotoxicity at 120 µM [5] was 75% and the IC50 [1] was 0.047 µM.
`Cc1ccc(-n2c(C)cc(C(=O)O)c2C)cc1` gave an inhibition at 120 µM [3] of 0%, a cytotoxicity at 120 µM [5] of 0% and an inhibition at 120 µM [6] of 70%.
For `CC(=O)N(C1=NC(=O)/C(=C/c2cc(C)n(-c3ccc(C)cc3)c2C)S1)c1ccccc1`, the IC50 [9] was 156 nM, the IC50 [4] was 25 nM and the IC50 [1] was 0.326 µM.
`Cc1cc(/C=C2\S/C(=N\c3ccccc3)N(c3ccccc3)C2=O)c(C)n1-c1ccc(C(F)(F)F)cc1` gave an IC50 [9] of 485 nM, an IC50 [4] of 372 nM and an IC50 [1] of 0.054 µM.
`Nc1ncnc2ccsc12` showed an IC50 [1] greater than 40 µM.
Work on `Oc1ncnc2cc(I)sc12` yielded an IC50 [1] greater than 40 µM.
With `Cc1cc(C(=O)N(C)C)c(C)n1-c1ccc(F)cc1` the IC50 [1] was greater than 40 µM.
`Cc1cc(C(=O)O)c(C)n1-c1ccc(C(F)(F)F)cc1` showed an inhibition at 120 µM [3] of 0%, a cytotoxicity at 120 µM [5] of 0% and an inhibition at 120 µM [6] of 25%.
`COC(=O)c1coc(-c2cnn(-c3ccc(F)cc3)c2C)n1` showed an IC50 [1] greater than 40 µM.
`NS(=O)(=O)c1ccc(CNc2nc(-c3ccsc3)nc3ccccc23)cc1` gave an IC50 [1] greater than 40 µM.
Compound `Cc1cc(C(=O)N(C(=O)NC2CCCCC2)C2CCCCC2)c(C)n1-c1ccc(F)cc1` has an IC50 [1] of 7.8 µM.
`CNC(=O)CCC(=O)c1cc(C)n(-c2ccc(F)cc2)c1C` gave an IC50 [1] greater than 40 µM.
Work on `CN(C)C(=O)n1cnc(SCc2ccccc2)n1` yielded an IC50 [1] of 0.438 µM.
Work on `Cc1cc(/C=C2\SC(N(CC#N)c3ccccc3)=NC2=O)c(C)n1-c1ccc(C(F)(F)F)cc1` yielded an IC50 [9] greater than 1000 nM and an IC50 [4] greater than 5000 nM.
Compound `Cc1cc(/C=C2\S/C(=N\c3ccccc3)N(C3CCCC3)C2=O)c(C)n1-c1ccc(C(F)(F)F)cc1` has a half-life at 0.5 µM [7] of 121 min, a microsomal CLint at 0.5 µM [8] of 14 µL/min/mg and an IC50 [9] of 520 nM. The IC50 [4] was 276 nM, the Relative metabolic rate [10] was “Moderate” and the solubility kinetic [11] was 5 µg/mL (≈ 9.81 µM). The IC50 [1] was 0.034 µM.
For `COc1cccc(NC(=O)CSc2nnc(-c3cc(C)n(-c4ccccc4)c3C)o2)c1`, the IC50 [1] was greater than 40 µM.
